Patent US20230085307A1, “PYRIDAZINONE COMPOUND AND HERBICIDE” (NISSAN CHEMICAL CORPORATION, priority 2019, published 2023)

How the values were obtained:
lambsquarters [1] = assay: Test Example 4: herbicidal effect by soil treatment (Table 19, symbol O); format: in vivo, lambsquarters (Chenopodium album); details: for O: lambsquarters, herbicidal effect rating: AAH 320 g/ha
Method in brief: (§1)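 Pre-emergence style soil spray: seeds under ~1.5 cm sterilized diluvial soil received a uniform coat of emulsion diluted to the predetermined herbicide amount. Greenhouse 25–30° C; readout at week three on previously defined criteria.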

wild oat = assay: Test Example 5: herbicidal effect by foliage application, plastic box (Table 20, symbol I); format: in vivo, wild oat (Avena fatua); details: foliage application
Method in brief: (§2)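 Plants were sown into sterilized diluvial soil under about 1.5 cm cover and kept in a greenhouse at 25° C. to 30° C. Fourteen days on, foliage received an even spray of the diluted emulsion. Herbicidal or crop effect was judged three weeks afterwards.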

green foxtail = assay: Test Example 5: herbicidal effect by foliage application, plastic box (Table 20, symbol G); format: in vivo, green foxtail (Setaria viridis); details: foliage application
Method in brief: as §2

Italian ryegrass [2] = assay: Test Example 5: herbicidal effect by foliage application, plastic box (Table 20, symbol K); format: in vivo, Italian ryegrass (Lolium multiflorum); details: foliage application
Method in brief: as §2

barnyard grass = assay: Test Example 3: herbicidal effect by foliage application, Wagner pot (Table 18, symbol H); format: in vivo, barnyard grass (Echinochloa crus-galli); details: for herbicidal effect on H (barnyard grass), rating 0-5: 320 g/ha
Method in brief: (§3)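 Plants were sown in alluvial soil held under 0.1–0.5 cm standing water and grown 14 days in a greenhouse at 25–30 °C. An emulsifiable formulation, water-diluted to the set dose, was then sprayed onto the foliage, and effects were scored three weeks later using previously defined criteria.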

oval-leafed pondweed = assay: Test Example 1: herbicidal activity, application before weed generation under submerged conditions (Table 16, symbol C); format: in vivo, oval-leafed pondweed (Monochoria vaginalis); details: 320 g/ha applied herbicide
Method in brief: (§4)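 Submerged Wagner pots (alluvial soil, 4 cm water) sown with weed seeds and planted with 2.5-leaf rice seedlings; emulsifiable concentrate diluted in water applied to water surface on sowing day. Held in greenhouse at 25-30 °C; injury scored 0-5 by herbicidal rate after three weeks.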

chickweed = assay: Test Example 4: herbicidal effect by soil treatment (Table 19, symbol P); format: in vivo, common chickweed (Stellaria media); details: for P: chickweed, herbicidal effect rating: AAH 320 g/ha
Method in brief: as §1

southern crabgrass = assay: Test Example 5: herbicidal effect by foliage application, plastic box (Table 20, symbol F); format: in vivo, southern crabgrass (Digitaria ciliaris); details: foliage application
Method in brief: as §2

Italian ryegrass [3] = assay: Test Example 4: herbicidal effect by soil treatment (Table 19, symbol K); format: in vivo, Italian ryegrass (Lolium multiflorum); details: for K: Italian ryegrass, herbicidal effect rating: AAH 320 g/ha
Method in brief: as §1

Chinese sprangletop = assay: Test Example 3: herbicidal effect by foliage application, Wagner pot (Table 18, symbol D); format: in vivo, chinese sprangletop (Leptochloa chinensis); details: for herbicidal effect on D (Chinese sprangletop), rating 0-5: 320 g/ha
Method in brief: as §3

lambsquarters [4] = assay: Test Example 5: herbicidal effect by foliage application, plastic box (Table 20, symbol O); format: in vivo, lambsquarters (Chenopodium album); details: foliage application
Method in brief: as §2

blackgrass = assay: Test Example 5: herbicidal effect by foliage application, plastic box (Table 20, symbol J); format: in vivo, blackgrass (Alopecurus myosuroides); details: foliage application
Method in brief: as §2

Japanese bulrush = assay: Test Example 1: herbicidal activity, application before weed generation under submerged conditions (Table 16, symbol B); format: in vivo, Japanese bulrush (Schoenoplectus juncoides); details: 320 g/ha applied herbicide
Method in brief: as §4

rice flat sedge = assay: Test Example 3: herbicidal effect by foliage application, Wagner pot (Table 18, symbol E); format: in vivo, rice flat sedge (Cyperus iria); details: for herbicidal effect on E (rice flat sedge), rating 0-5: 320 g/ha
Method in brief: as §3

velvetleaf = assay: Test Example 5: herbicidal effect by foliage application, plastic box (Table 20, symbol M); format: in vivo, velvetleaf (Abutilon theophrasti); details: foliage application
Method in brief: as §2

late watergrass = assay: Test Example 1: herbicidal activity, application before weed generation under submerged conditions (Table 16, symbol A); format: in vivo, late watergrass (Echinochloa oryzicola); details: 320 g/ha applied herbicide
Method in brief: as §4

[5] = AAH 320 g/ha, three weeks after application
[6] = 320 g/ha, 3 weeks after application
[7] = amount of applied herbicide 320 g/ha
[8] = AAH 320 g/ha, evaluated three weeks after application
[9] = 320 g/ha, evaluated three weeks after application

SMILES: Cc1nn(C)c(=O)c(-c2c(-c3ccc(OCC(F)(F)F)cc3)sc3ccccc23)c1O [1-140]
- O: lambsquarters, herbicidal effect rating (lambsquarters [1]): 5 (Herbicidal rate of 90% or more (almost completely withered))
- I: wild oat, herbicidal effect (wild oat; [5]): 0 (Herbicidal rate of 5% or less (almost no effect))
- G: green foxtail, herbicidal effect (green foxtail; [5]): 5 (Herbicidal rate of 90% or more (almost completely withered))
- K: Italian ryegrass, herbicidal effect (Italian ryegrass [2]; [5]): 5 (Herbicidal rate of 90% or more (almost completely withered))
- herbicidal effect on H (barnyard grass), rating 0-5 (barnyard grass): 5 (Herbicidal rate of 90% or more (almost completely withered))
- Herbicidal effect on C: oval-leafed pondweed (grade 0-5) (oval-leafed pondweed): 0 (Herbicidal rate of 5% or less (almost no effect))
- P: chickweed, herbicidal effect rating (chickweed): 4 (Herbicidal rate of 70% or more and less than 90%)
- F: southern crabgrass, herbicidal effect (southern crabgrass; [5]): 4 (Herbicidal rate of 70% or more and less than 90%)
- K: Italian ryegrass, herbicidal effect rating (Italian ryegrass [3]): 5 (Herbicidal rate of 90% or more (almost completely withered))
- herbicidal effect on D (Chinese sprangletop), rating 0-5 (Chinese sprangletop): 3 (Herbicidal rate of 40% or more and less than 70%)
- O: lambsquarters, herbicidal effect (lambsquarters [4]; [5]): 5 (Herbicidal rate of 90% or more (almost completely withered))
- J: blackgrass, herbicidal effect (blackgrass; [5]): 4 (Herbicidal rate of 70% or more and less than 90%)
- Herbicidal effect on B: Japanese bulrush (grade 0-5) (Japanese bulrush): 2 (Herbicidal rate of 20% or more and less than 40%)
- herbicidal effect on E (rice flat sedge), rating 0-5 (rice flat sedge): 5 (Herbicidal rate of 90% or more (almost completely withered))
- M: velvetleaf, herbicidal effect (velvetleaf; [5]): 4 (Herbicidal rate of 70% or more and less than 90%)
- Herbicidal effect on A: late watergrass (grade 0-5) (late watergrass): 3 (Herbicidal rate of 40% or more and less than 70%)

SMILES: Cc1nn(C)c(=O)c(-c2c(-c3ccc(OC(F)F)cc3)sc3ccccc23)c1O [1-201]
- O: lambsquarters, herbicidal effect rating (lambsquarters [1]): 5 (Herbicidal rate of 90% or more (almost completely withered))
- effect on wild oat (I) (wild oat; [6]): 2 (Herbicidal rate of 20% or more and less than 40%)
- effect on green foxtail (G) (green foxtail; [6]): 5 (Herbicidal rate of 90% or more (almost completely withered))
- effect on Italian ryegrass (K) (Italian ryegrass [2]; [6]): 5 (Herbicidal rate of 90% or more (almost completely withered))
- herbicidal effect on H (barnyard grass), rating 0-5 (barnyard grass): 5 (Herbicidal rate of 90% or more (almost completely withered))
- Herbicidal effect on C: oval-leafed pondweed (grade 0-5) (oval-leafed pondweed): 1 (Herbicidal rate of 5% or more and less than 20%)
- P: chickweed, herbicidal effect rating (chickweed): 4 (Herbicidal rate of 70% or more and less than 90%)
- effect on southern crabgrass (F) (southern crabgrass; [6]): 0 (Herbicidal rate of 5% or less (almost no effect))
- K: Italian ryegrass, herbicidal effect rating (Italian ryegrass [3]): 4 (Herbicidal rate of 70% or more and less than 90%)
- herbicidal effect on D (Chinese sprangletop), rating 0-5 (Chinese sprangletop): 4 (Herbicidal rate of 70% or more and less than 90%)
- effect on lambsquarters (O) (lambsquarters [4]; [6]): 5 (Herbicidal rate of 90% or more (almost completely withered))
- effect on blackgrass (J) (blackgrass; [6]): 4 (Herbicidal rate of 70% or more and less than 90%)
- Herbicidal effect on B: Japanese bulrush (grade 0-5) (Japanese bulrush): 4 (Herbicidal rate of 70% or more and less than 90%)
- herbicidal effect on E (rice flat sedge), rating 0-5 (rice flat sedge): 5 (Herbicidal rate of 90% or more (almost completely withered))
- effect on velvetleaf (M) (velvetleaf; [6]): 5 (Herbicidal rate of 90% or more (almost completely withered))
- Herbicidal effect on A: late watergrass (grade 0-5) (late watergrass): 3 (Herbicidal rate of 40% or more and less than 70%)

SMILES: COCCOC(=O)Oc1c(C)nn(C)c(=O)c1-c1c(-c2ccc(OC(F)F)cc2)sc2ccc(F)cc12 [2-295]
- herbicidal effect on O: lambsquarters (lambsquarters [1]; [7]): 5 (Herbicidal rate of 90% or more (almost completely withered))
- I: wild oat, herbicidal effect (criteria 0-5) (wild oat; [8]): 3 (Herbicidal rate of 40% or more and less than 70%)
- G: green foxtail, herbicidal effect (criteria 0-5) (green foxtail; [8]): 5 (Herbicidal rate of 90% or more (almost completely withered))
- K: Italian ryegrass, herbicidal effect (criteria 0-5) (Italian ryegrass [2]; [8]): 5 (Herbicidal rate of 90% or more (almost completely withered))
- herbicidal effect on H: barnyard grass (barnyard grass; [7]): 5 (Herbicidal rate of 90% or more (almost completely withered))
- Herbicidal effect on C: oval-leafed pondweed (grade 0-5) (oval-leafed pondweed): 2 (Herbicidal rate of 20% or more and less than 40%)
- herbicidal effect on P: chickweed (chickweed; [7]): 4 (Herbicidal rate of 70% or more and less than 90%)
- F: southern crabgrass, herbicidal effect (criteria 0-5) (southern crabgrass; [8]): 4 (Herbicidal rate of 70% or more and less than 90%)
- herbicidal effect on K: Italian ryegrass (Italian ryegrass [3]; [7]): 5 (Herbicidal rate of 90% or more (almost completely withered))
- herbicidal effect on D: Chinese sprangletop (Chinese sprangletop; [7]): 4 (Herbicidal rate of 70% or more and less than 90%)
- O: lambsquarters, herbicidal effect (criteria 0-5) (lambsquarters [4]; [8]): 5 (Herbicidal rate of 90% or more (almost completely withered))
- J: blackgrass, herbicidal effect (criteria 0-5) (blackgrass; [8]): 4 (Herbicidal rate of 70% or more and less than 90%)
- Herbicidal effect on B: Japanese bulrush (grade 0-5) (Japanese bulrush): 3 (Herbicidal rate of 40% or more and less than 70%)
- herbicidal effect on E: rice flat sedge (rice flat sedge; [7]): 5 (Herbicidal rate of 90% or more (almost completely withered))
- M: velvetleaf, herbicidal effect (criteria 0-5) (velvetleaf; [8]): 5 (Herbicidal rate of 90% or more (almost completely withered))
- Herbicidal effect on A: late watergrass (grade 0-5) (late watergrass): 4 (Herbicidal rate of 70% or more and less than 90%)

SMILES: CCCC(=O)Oc1c(C)nn(C)c(=O)c1-c1c(-c2ccc(C(C)=O)cc2)sc2ccc(F)cc12 [2-078]
- herbicidal effect rating, O: lambsquarters (lambsquarters [1]; 320 g/ha): 4 (Herbicidal rate of 70% or more and less than 90%)
- herbicidal effect on I: wild oat (wild oat; [9]): 2 (Herbicidal rate of 20% or more and less than 40%)
- herbicidal effect on G: green foxtail (green foxtail; [9]): 3 (Herbicidal rate of 40% or more and less than 70%)
- herbicidal effect on K: Italian ryegrass (Italian ryegrass [2]; [9]): 5 (Herbicidal rate of 90% or more (almost completely withered))
- herbicidal effect on H (barnyard grass), rating 0-5 (barnyard grass): 3 (Herbicidal rate of 40% or more and less than 70%)
- Herbicidal effect on C: oval-leafed pondweed (grade 0-5) (oval-leafed pondweed): 4 (Herbicidal rate of 70% or more and less than 90%)
- herbicidal effect rating, P: chickweed (chickweed; 320 g/ha): 3 (Herbicidal rate of 40% or more and less than 70%)
- herbicidal effect on F: southern crabgrass (southern crabgrass; [9]): 0 (Herbicidal rate of 5% or less (almost no effect))
- herbicidal effect rating, K: Italian ryegrass (Italian ryegrass [3]; 320 g/ha): 4 (Herbicidal rate of 70% or more and less than 90%)
- herbicidal effect on D (Chinese sprangletop), rating 0-5 (Chinese sprangletop): 5 (Herbicidal rate of 90% or more (almost completely withered))
- herbicidal effect on O: lambsquarters (lambsquarters [4]; [9]): 4 (Herbicidal rate of 70% or more and less than 90%)
- herbicidal effect on J: blackgrass (blackgrass; [9]): 4 (Herbicidal rate of 70% or more and less than 90%)
- Herbicidal effect on B: Japanese bulrush (grade 0-5) (Japanese bulrush): 4 (Herbicidal rate of 70% or more and less than 90%)
- herbicidal effect on E (rice flat sedge), rating 0-5 (rice flat sedge): 5 (Herbicidal rate of 90% or more (almost completely withered))
- herbicidal effect on M: velvetleaf (velvetleaf; [9]): 5 (Herbicidal rate of 90% or more (almost completely withered))
- Herbicidal effect on A: late watergrass (grade 0-5) (late watergrass): 5 (Herbicidal rate of 90% or more (almost completely withered))
